Positions of bridges follow the written chain, without caps; N, C: chain ends. Residues, ends and D or L forms follow the SMILES beside them. No end group written: not given here.
Columns and labels:
Kv11.1 = assay: Patch-clamp whole-cell recording of Kv11.1 channel currents in transfected HEK293 cells; type: cell-based, human; conditions: 1 μM peptide, compared with Kv1.3
Method: (§1) The cDNAs encoding mouse Kv1.1, human Kv1.2, mouse Kv1.3, human Kv7.1, human Kv11.1, human KCa3.1, human KCa2.2 and human KCa2.3 were subcloned into the Xho I and Bam HI sites of pIRES2-EGFP, a bicistronic expression vector (Clontech, USA) for coexpression with enhanced GFP.
(§2) Electrophysiological experiments were carried out using patch-clamp whole-cell recording as described previously[10][23][27][38]. HEK293 cells were transfected with appropriate cDNA plasmids using the SofastTM Transfection Reagent (Sunma). Potassium currents were recorded 1 to 3 days after transfection and positive cells were selected based on the presence of GFP fluorescence. Electrophysiological experiments were carried out at 22–25°C using patch-clamp whole-cell recording. Data analyses were performed with IgorPro (WaveMetrics, Lake Oswego, OR), and IC50 values were deduced by fitting a modified Hill equation to the data, Itoxin/Icontrol = 1/1 + ([toxin peptide]/IC50), where I is the peak current to the normalized data points obtained with at least five different toxin peptide concentrations. The results are mainly shown as the mean ± S.E, with n representing the number of experiments.

Kv1.3 channel = target: T1, Kv1.3 channel (Mus musculus, UniProt P16390); assay: Patch-clamp whole-cell recording of Kv1.3 channel currents in transfected HEK293 cells; type: cell-based; conditions: for Reduction of the affinity of BmKTX-196 for the Kv1.3 channel: alanyl mutants of BmKTX-196
T1 construct: expressed in transfected cells; host or cells: HEK293 cells
T1 sequence (P16390 whole entry): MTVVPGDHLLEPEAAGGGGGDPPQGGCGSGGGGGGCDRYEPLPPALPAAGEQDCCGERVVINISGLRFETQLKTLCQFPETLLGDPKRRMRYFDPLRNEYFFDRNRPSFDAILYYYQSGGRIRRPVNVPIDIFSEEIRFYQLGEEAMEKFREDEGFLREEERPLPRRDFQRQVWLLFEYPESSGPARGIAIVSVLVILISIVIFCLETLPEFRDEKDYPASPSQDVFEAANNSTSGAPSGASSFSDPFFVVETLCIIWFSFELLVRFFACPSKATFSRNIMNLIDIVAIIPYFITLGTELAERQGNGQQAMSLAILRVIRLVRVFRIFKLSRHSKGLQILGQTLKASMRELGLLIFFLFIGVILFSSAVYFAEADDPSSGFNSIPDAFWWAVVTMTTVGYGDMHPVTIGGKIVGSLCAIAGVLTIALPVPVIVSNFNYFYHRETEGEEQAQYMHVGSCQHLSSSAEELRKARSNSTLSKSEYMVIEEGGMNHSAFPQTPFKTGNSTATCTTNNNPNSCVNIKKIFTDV
Method: as §1, §2

CC[C@H](C)[C@H](NC(=O)CNC(=O)[C@@H](N)C(C)C)C(=O)N[C@@H](CC(N)=O)C(=O)N[C@H](C(=O)N[C@@H](CC(=O)O)C(=O)N[C@H]1CSSC[C@@H]2NC(=O)[C@H](CCCCN)NC(=O)CNC(=O)[C@H](Cc3ccccc3)NC(=O)[C@H](CCCNC(=N)N)NC(=O)[C@H](CCSC)NC(=O)CNC(=O)[C@H](C)NC(=O)[C@H](CCCCN)NC(=O)[C@H](CCCCN)NC(=O)[C@@H]3CSSC[C@@H](C(=O)N[C@H](C(=O)N4CCC[C@H]4C(=O)N[C@@H](CCCCN)C(=O)O)[C@@H](C)O)NC(=O)[C@H](CC(=O)O)NC(=O)[C@H](CSSC[C@H](NC(=O)[C@H](CCC(N)=O)NC(=O)CNC(=O)[C@H](CO)NC(=O)[C@H](Cc4c[nH]cn4)NC(=O)[C@H](CCCCN)NC1=O)C(=O)N[C@@H](CC(C)C)C(=O)N[C@@H](CCCCN)C(=O)N1CCC[C@H]1C(=O)N3)NC(=O)[C@H](CCCCN)NC(=O)CNC(=O)[C@H](CC(N)=O)NC(=O)[C@H]([C@@H](C)CC)NC2=O)C(C)C [BmKTX-196] (H-VGINVDCKHSGQCLKPCKKAGMRFGKCINGKCDCTPK-OH; disulfide 7-27, 13-32, 17-34)
Effect on Kv11.1 channel currents (Kv11.1): much less of an effect
Inhibition of Kv1.3 channel currents (Kv1.3 channel; 10 nM peptide, whole-cell patch clamp, HEK293): more than 50%
IC50 (Kv1.3 channel; whole-cell patch clamp, HEK293 transfected with mouse Kv1.3, 22-25°C, Hill fit, at least five concentrations, mean ± S.E. of at least three experiments, read-out: IC50 for inhibiting Kv1.3 channel current): 7.3 ± 1.8 nM

BmKTX-19/K6A: alanyl mutant of BmKTX-19 at Lys6 (VGINVACKHSGQCLKPCKKAGMRFGKCINGKCDCTPKG; ends and bridges not checked; cysteine pairing not given here)
Impact on the inhibitory potency of BmKTX-19 on Kv1.3 (Kv1.3 channel; alanine-scanning mutagenesis, alanyl mutants of BmKTX-19, compared with the Lys8, His9 and Lys15 substitutions): much less of an impact

BmKTX-196/H9A: alanyl mutant of BmKTX-196 at His9 (VGINVDCKASGQCLKPCKKAGMRFGKCINGKCDCTPKG; ends and bridges not checked; cysteine pairing not given here)
Reduction of the affinity of BmKTX-196 for the Kv1.3 channel (Kv1.3 channel; alanine-scanning mutagenesis): 3 fold

BmKTX-196/K8A: alanyl mutant of BmKTX-196 at Lys8 (VGINVDCAHSGQCLKPCKKAGMRFGKCINGKCDCTPKG; ends and bridges not checked; cysteine pairing not given here)
Reduction of the affinity of BmKTX-196 for the Kv1.3 channel (Kv1.3 channel; alanine-scanning mutagenesis): 68 fold

From publication PMC4424837, “Toxin acidic residue evolutionary function-guided design of de novo peptide drugs for the immunotherapeutic target, the Kv1.3 channel” (Scientific Reports, 2015)
